Results reported in patent US10227331B2 (priority 2015, dated 2019).

Columns and labels:
IMP-1 = IMP-1 (Serratia marcescens, UniProt P52699); test: biochemical; format: biochemical; conditions: CCF2-FA substrate, 2 hours at 25° C; read-out: IMP-1 IC50
In short: (§1)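 IC50 values derive from 4-parameter fits of percent inhibition against inhibitor concentration on semi-log axes. Activity was monitored by fluorescence with the CCF2-FA substrate after a 2-hour, 25° C incubation of compound, enzyme and substrate.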

NDM-1 = NDM-1 (Klebsiella pneumoniae, UniProt C7C422); test: biochemical; format: biochemical; conditions: CCF2-FA substrate, 2 hours at 25° C; read-out: NDM-1 IC50
Chain of NDM-1 (C7C422 whole entry, looked up, species assumed): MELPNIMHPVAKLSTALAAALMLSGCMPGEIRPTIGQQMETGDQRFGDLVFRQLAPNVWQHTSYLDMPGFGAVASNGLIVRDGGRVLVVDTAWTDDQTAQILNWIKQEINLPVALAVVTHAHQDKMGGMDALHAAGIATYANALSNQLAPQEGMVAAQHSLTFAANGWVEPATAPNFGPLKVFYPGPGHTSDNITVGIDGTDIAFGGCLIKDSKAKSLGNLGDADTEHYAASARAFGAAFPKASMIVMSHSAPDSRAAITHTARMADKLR
In short: as §1

VIM-1 = VIM-1 (Pseudomonas aeruginosa (strain ATCC 15692 / DSM 22644 / CIP 104116 / JCM 14847 / LMG 12228 / 1C / PRS 101 / PAO1), UniProt A0A0F7KYQ8); test: biochemical; conditions: CCF2-FA substrate, 2 hours at 25° C
In short: as §1

[1] = system: Escherichia coli expressing NDM-1 (CLB30005, CLB30016); format: cell-based; conditions: with imipenem 1 μg/ml, 95% inhibition of bacterial growth; for Escherichia coli MITC95: NDM-1 (CLB30016)
In short: (§2)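 Restoration of imipenem susceptibility (1 μg/ml imipenem) was judged by absorbance after 22–24 h at 35° C. Test compound was added to bacteria suspended 1:100 in 1.1× CAMHB from overnight blood-agar cultures.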

[2] = system: Klebsiella pneumoniae expressing VIM-1 (IHMA599644); format: cell-based; conditions: with imipenem 1 μg/ml, 95% inhibition of bacterial growth; for Klebsiella pneumoniae MITC95: VIM-1 (IHMA599644)
In short: as §2

[3] = system: Serratia marcescens expressing IMP-1 (CL5741); format: cell-based; conditions: with imipenem 1 μg/ml, 95% inhibition of bacterial growth; for Serratia marcescens MITC95: IMP-1 (CL5741)
In short: as §2

[4] = system: P. aeruginosa expressing IMP-1, efflux+ (MB9798); format: cell-based, Pseudomonas aeruginosa; conditions: for P. aeruginosa expressing IMP-1, efflux+ (MB9798) MITC95: imipenem at 2 μg/mL, in the presence of a class A, C, D serine β-lactamase inhibitor closely related to relebactam; for Efflux ratio: ratio MITC95 PA_9798/MITC95 PA_9799
From the text: (§3) The strain background is Pseudomonas aeruginosa PAO1.

[5] = system: P. aeruginosa expressing IMP-1, efflux− (MB9799); test: Efflux: concentration of MBL inhibitor which restores susceptibility to imipenem; format: cell-based, Pseudomonas aeruginosa; conditions: imipenem at 2 μg/mL, in the presence of a class A, C, D serine β-lactamase inhibitor closely related to relebactam
From the text: as §3

Chain of IMP-1 (P52699 whole entry, looked up, species assumed): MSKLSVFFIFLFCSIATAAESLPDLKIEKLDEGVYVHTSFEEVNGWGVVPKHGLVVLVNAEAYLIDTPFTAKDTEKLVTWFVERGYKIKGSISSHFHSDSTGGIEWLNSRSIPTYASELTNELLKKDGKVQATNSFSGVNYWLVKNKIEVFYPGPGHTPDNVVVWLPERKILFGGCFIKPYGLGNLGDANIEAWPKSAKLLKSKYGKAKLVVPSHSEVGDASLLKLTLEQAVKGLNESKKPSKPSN

Row | Structure (SMILES) | IC50 (IMP-1) [pM] | IC50 (NDM-1) [pM] | IC50 (VIM-1) [pM] | Escherichia coli expressing NDM-1 (CLB30016) MITC95 [1] [µM] | Klebsiella pneumoniae expressing VIM-1 (IHMA599644) MITC95 [2] [µM] | Serratia marcescens expressing IMP-1 (CL5741) MITC95 [3] [µM] | P. aeruginosa expressing IMP-1, efflux+ (MB9798) MITC95 [4] [µM] | Efflux ratio [4] | P. aeruginosa expressing IMP-1, efflux− (MB9799) MITC95 [5] [µM] | Escherichia coli MITC95 [1] [µM] | Klebsiella pneumoniae MITC95 [2] [µM] | Serratia marcescens MITC95 [3] [µM]
1 | Cc1n[nH]c2ccc(-c3ccc(S(=O)(=O)C4CNC4)c(S(N)(=O)=O)c3-c3nnn[nH]3)cc12.O=C(O)C(F)(F)F [Example 126, 3-((4-(3-methyl-1H-indazol-5-yl)-2-sulfamoyl-3-(1H-tetrazol-5-yl)phenyl)sulfonyl)azetidin-1-ium 2,2,2-trifluoroacetate] | 715 | 428 | 477 | 3.125 | 6.25 | 6.25 | 12.5 | 8.00 | 1.563 |  |  | 
2 | NS(=O)(=O)c1c(S(=O)(=O)C2CNC2)ccc(-c2cnc3ccccn23)c1-c1nn[nH]n1 [Example 9, 6-(Azetidin-3-ylsulfonyl)-3-(imidazo[1,2-a]pyridin-3-yl)-2-(2H-tetrazol-5-yl)benzenesulfonamide] | 913 | 332 | 375 | 0.7813 | 3.125 | 1.563 | 6.25 | 4.00 | 1.563 |  |  | 
3 | NS(=O)(=O)c1c(S(=O)(=O)C2CNC2)ccc(-c2cccn3cc(C(=O)O)nc23)c1-c1nnn[nH]1 [Example 61, 8-(4-(Azetidin-3-ylsulfonyl)-3-sulfamoyl-2-(1H-tetrazol-5-yl)phenyl)imidazo[1,2-a]pyridine-2-carboxylic Acid] | 2220 | 254 | 678 | 12.5 | 25 | 6.25 | 12.5 | 1.00 | 12.5 |  |  | 
4 | Nc1nc2cccc(-c3ccc(S(=O)(=O)[C@H]4C[C@H](N)C4)c(S(N)(=O)=O)c3-c3nn[nH]n3)c2[nH]1 [Example 175, 3-(2-amino-3H-benzo[d]imidazol-4-yl)-6-((1r,3r)-3-aminocyclobutylsulfonyl)-2-(2H-tetrazol-5-yl)benzenesulfonamide] | 2200 | 149 | 478 | 0.7813 | 1.563 | 1.563 | 0.7813 | 1.00 | 0.7813 |  |  | 
5 | NCCS(=O)(=O)c1ccc(-c2ccc3c(c2)CC(=O)N3)c(-c2nnn[nH]2)c1S(N)(=O)=O.O=C(O)C(F)(F)F [Example 157, 2-((4-(2-oxoindolin-5-yl)-2-sulfamoyl-3-(1H-tetrazol-5-yl)phenyl)sulfonyl)ethanaminium 2,2,2-trifluoroacetate] | 1890 | 1940 | 295 | 1.563 | 3.125 | 1.563 | 12.5 | 16.00 | 0.7813 |  |  | 
6 | NC[C@H](N)CS(=O)(=O)c1ccc(-c2ccc(N)nc2)c(-c2nn[nH]n2)c1S(N)(=O)=O [Example 372, (S)-3-(6-aminopyridin-3-yl)-6-((2,3-diaminopropyl)sulfonyl)-2-(2H-tetrazol-5-yl) benzenesulfonamide] | 1420 | 1170 | 992 |  |  |  | 3.125 | 2.00 | 1.563 | 0.7813 | 3.125 | 1.563
7 | NCCS(=O)(=O)c1ccc(-c2ccc3c(c2)CNC3=O)c(-c2nnn[nH]2)c1S(N)(=O)=O.O=C(O)C(F)(F)F [Example 166, 2-((4-(1-oxoisoindolin-5-yl)-2-sulfamoyl-3-(1H-tetrazol-5-yl)phenyl)sulfonyl)ethanaminium 2,2,2-trifluoroacetate] | 1510 | 2790 | 326 | 1.563 | 6.25 | 3.125 | 12.5 | 8.00 | 1.563 |  |  | 
8 | NCCS(=O)(=O)c1ccc(-c2ccc3[nH]c(N)nc3c2)c(-c2nn[nH]n2)c1S(N)(=O)=O [Example 69, 3-(2-amino-1H-benzo[d]imidazol-5-yl)-6-(2-aminoethylsulfonyl)-2-(2H-tetrazol-5-yl)benzenesulfonamide] | 2770 | 1250 | 485 | 0.25 | 0.8906 | 0.4453 | 3.125 | 7.02 | 0.4453 |  |  | 
9 | Nc1nc2c(-c3ccc(S(=O)(=O)C4CNC4)c(S(N)(=O)=O)c3-c3nn[nH]n3)ccc(C(=O)O)c2s1 [Example 38, 2-amino-4-(4-(azetidin-3-ylsulfonyl)-3-sulfamoyl-2-(2H-tetrazol-5-yl)phenyl)benzo[d]thiazole-7-carboxylic Acid] | 126 | 28.6 | 341 | 31.25 | 25 | 12.5 | 9.375 | 1.50 | 6.25 |  |  | 
10 | Nc1n[nH]c2c(-c3ccc(S(=O)(=O)C4CNC4)c(S(N)(=O)=O)c3-c3nn[nH]n3)cccc12 [Example 21, 3-(3-amino-1H-indazol-7-yl)-6-(azetidin-3-ylsulfonyl)-2-(2H-tetrazol-5-yl)benzenesulfonamide] | 639 | 150 | 450 | 1.563 | 3.125 | 3.125 | 1.563 | 1.00 | 1.563 |  |  | 
11 | NCCS(=O)(=O)c1ccc(-c2cccc3nc(N)nn23)c(-c2nn[nH]n2)c1S(N)(=O)=O [Example 225, 3-(2-amino-[1,2,4]triazolo[1,5-a]pyridin-5-yl)-6-((2-aminoethyl)sulfonyl)-2-(2H-tetrazol-5-yl)benzenesulfonamide] | 1960 | 164 | 228 | 1.563 | 3.125 | 1.563 | 3.125 | 2.00 | 1.563 |  |  | 
12 | NCCS(=O)(=O)c1ccc(-c2cccc3[nH]cnc23)c(-c2nn[nH]n2)c1S(N)(=O)=O [Example 198, 6-((2-aminoethyl)sulfonyl)-3-(1H-benzo[d]imidazol-4-yl)-2-(2H-tetrazol-5-yl)benzenesulfonamide] | 374 | 238 | 206 | 0.7813 | 1.563 | 1.563 | 0.7813 | 1.00 | 0.7813 |  |  | 
13 | NS(=O)(=O)c1cccc(-c2ccc(S(=O)(=O)C3CNC3)c(S(N)(=O)=O)c2-c2nn[nH]n2)c1 [Example 247, 4-(Azetidin-3-ylsulfonyl)-2-(2H-tetrazol-5-yl)-[1,1′-biphenyl]-3,3′-disulfonamide] | 3240 | 2010 | 1830 |  |  |  | 25 | 15.99 | 1.563 | 1.563 | 3.125 | 1.563
